Data on one compound can be found in patent publication US20200078360A1, “SMALL MOLECULE DUAL INHIBITORS OF EGFR/PI3K AND USES THEREOF” (The Regents of the University of Michigan, priority 2016, published 2020).

Data set [1] concerns ERBB and PI3K family members. The data set is described as follows: potency and selectivity against kinase family members (FIG. 1). It is filed as biochemical.
Data set [2] can be described thus: metabolic stability (FIG. 2). The class given is in vitro ADME.
The test system of data set [3] is EGFR and PI3K pathway signaling. The data set is described as follows: cellular EGFR and PI3K pathway signaling (Western blots). It is filed as cell-based. Conditions: FIG. 4. The protocol: Cells or tumors were lysed in NP-40 lysis buffer [25 mmolL Tris-HCl (pH 7.6), 150 mmol/L NaCl, 1% Nonidet P-40, 10% glycerol, 1 mmol/L EDTA, 1 mmol/L dithiothreitol, and protease and phosphatase inhibitors], rocked for 30 minutes at 4° C., and centrifuged at 13,200 rpm for 20 minutes at 4° C. Protein concentration was determined by BioRad Protein Assays and lysates were subsequently subjected to SDS gel electrophoresis. Proteins were transferred to polyvinylidene fluoride (PVDF) membranes and probed with primary antibodies recognizing p-EGFR tyr1068), EGFR, p-HER2 (tyr1248), HER2, p-AKT (ser473), p-AKT (thr308), AKT, pERK1/2 (thr202/tyr204), ERK1/2, pS6K (ser235/236), S6K, and cleaved PARP (all from Cell Signaling Technology) and beta actin (Abcam). After incubation with anti-rabbit HRP-linked secondary antibody (Jackson ImmunoResearch Laboratories, Inc.), proteins were detected using chemiluminescence (GE Healthcare).

The next data set has as its system HCT-116 (KRASmt) tumors. The experiment in a line: single agent activity against HCT-116 tumors. It is filed as in vivo. Conditions: FIG. 5.
The next data set relates to RKO (BRAFmt) tumors. The experiment in a line: single agent activity against RKO tumors. The note with it: FIG. 5. It is filed as in vivo.
The nature of data set [4]: tolerability of daily oral dosing. It is filed as in vivo. Conditions: daily oral dosing of 100 mg/kg, FIG. 6. The protocol:
(§1) For the xenograft studies established from the patient-derived xenograft (PDX) models (UM CRC 14-929 and UM CRC 15-1269), female 6- to 7-week-old NCR nude mice (CrTac:NCr-Foxnlnu from Taconic) were implanted subcutaneously with low-passage PDX tumor fragments (30 mg) into the region of the right axilla. For the xenograft studies established from cell lines (CT-26), cells were injected (1×10^6 cells per injection) into the flanks of female 6- to 7-week old NCR nude mice. In both cases, the mice were randomized into treatment groups and treatments initiated when tumors reached 100 to 200 mg. […] Subcutaneous tumor volume and body weights were measured two to three times a week. Tumor volumes were calculated by measuring two perpendicular diameters with calipers and using the formula: tumor volume ¼ (length x width^2)/2. Percent treated/control (% TC) was calculated by dividing the median treated tumor weight by the median control tumor weight and multiplying by 100 on the last day of treatment. […] Increase in lifespan was calculated by dividing the median increase in lifespan (days) by the median survival time of the vehicle control group. […]

The test system of a further data set is xenograft. The data set is described as follows: in vivo efficacy in combination with MEK inhibitors (FIG. 22). More on the design: species or system mice. The protocol: as §1

For `CS(=O)(=O)Nc1cc(-c2ccc3ncnc(Nc4ccc(F)c(Cl)c4)c3c2)cnc1Cl` [MTX-211], the “potency and selectivity against ERBB and PI3K family members” value in data set [1] is “potent and highly selective”. The metabolic stability entry in data set [2] is recorded as “favorable metabolic stability”. In addition, in data set [3], the “modulation of cellular EGFR and PI3K pathway signaling” value is “modulates cellular EGFR and PI3K pathway signaling”. Moreover, the “activity against HCT-116 (KRASmt) tumors” value in the data set on HCT-116 (KRASmt) tumors was “single agent activity”. The “activity against RKO (BRAFmt) tumors” value with RKO (BRAFmt) tumors was “single agent activity”. The tolerability result in data set [4] was “well tolerated”. In addition, the “in vivo efficacy when combined with MEK inhibitors” value with xenograft is on record as “in vivo potentiation of MTX-211 efficacy”.
